From patent US11407768B2, “AMPK activators” (Kallyope, Inc., priority 2020, dated 2022)
Values belong to the compound of their own block, whether it stands above or below them.

How the values were obtained:
in vitro = details: human
Procedure: Caco-2 cells purchased from ATCC were seeded onto […] (PET) in 96-well BD Insert plates at 1×10^5 cells/cm^2, and refreshed medium every 4-5 days until to the 21st to 28th day for confluent cell monolayer formation. The transport buffer in the study was HBSS with 10 mM HEPES at pH 7.40±0.05. Test compounds were tested at 2 μM bi-directionally in duplicate. Digoxin was tested at 10 μM bi-directionally in duplicate, while nadolol and metoprolol were tested at 2 μM in A to B direction in duplicate. Final DMSO concentration was adjusted to less than 1%.
The plate was incubated for 2 hours in CO2 incubator at 37±1° C., with 5% CO2 at saturated humidity without shaking. All samples were mixed with acetonitrile containing internal standard and were centrifuged at 4000 rpm for 10 min. Subsequently, 100 μL supernatant solution was diluted with 100 μL distilled water for LC/MS/MS analysis. Concentrations of test and control compounds in starting solution, donor solution, and receiver solution were quantified by LC/MS/MS, using peak area ratio of analyte/internal standard.

[1] = system: Chemotherapy-induced Intestinal Injury Model; test: Diarrhea in mouse chemotherapy-induced (5FU) intestinal injury model; assay type: in vivo, BALB/c mice; details: 30 mpk BID oral, 5FU 400 mg/kg IP; for Diarrhea Score Day 5 / Diarrhea Score Day 6: score 0-3
Procedure: Compounds were formulated in vehicle (0.25% methyl cellulose, 5% Tween 80, 0.02% sodium dodecyl sulfate (SDS) in Hanks' Buffered Salt Solution with Ca' and Mg'). On day 1, either saline or a 400 mg/kg dose of 5-fluorouracil (5FU) in saline was administered by intraperitoneal injection to BALB/c mice. Starting on day 2, vehicle or compound was administered twice a day by oral gavage. From days 5 to 6 post-5FU, the animals were scored for diarrhea severity once a day. The diarrhea was scored 0-3 as follows: 0—normal consistency (black and solid), 1—soft (black and a bit lighter/yellow), 2—loosely shaped stool (yellowish and somewhat watery), 3—extreme diarrhea (very watery).

[2] = target: Recombinant AMPK α1/β1/γ1 complex (Homo sapiens (Human), UniProt Q13131+Q9Y478); test: In vitro pAMPK1 kinase activation assay (ADP-Glo, SAMS peptide); assay type: biochemical; details: AMPK α1/β1/γ1 pre-activated with CAMKK2; 12-point curve; 15 min compound incubation
Chain of Recombinant AMPK α1/β1/γ1 complex (Q13131 whole entry): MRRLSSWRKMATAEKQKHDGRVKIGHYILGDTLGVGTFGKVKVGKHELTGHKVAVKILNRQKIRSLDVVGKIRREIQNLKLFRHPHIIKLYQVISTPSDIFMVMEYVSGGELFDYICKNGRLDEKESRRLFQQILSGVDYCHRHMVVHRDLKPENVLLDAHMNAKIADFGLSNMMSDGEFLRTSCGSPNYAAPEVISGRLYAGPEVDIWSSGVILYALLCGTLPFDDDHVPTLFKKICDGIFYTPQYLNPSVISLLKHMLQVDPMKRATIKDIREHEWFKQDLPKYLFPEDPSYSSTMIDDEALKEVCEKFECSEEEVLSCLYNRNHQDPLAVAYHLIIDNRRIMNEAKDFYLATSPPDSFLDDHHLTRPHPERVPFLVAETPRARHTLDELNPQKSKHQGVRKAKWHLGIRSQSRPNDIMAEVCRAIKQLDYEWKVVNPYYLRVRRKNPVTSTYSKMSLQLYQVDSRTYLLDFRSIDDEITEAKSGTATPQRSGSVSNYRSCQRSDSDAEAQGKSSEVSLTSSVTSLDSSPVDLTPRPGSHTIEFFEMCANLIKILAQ
Chain of Recombinant AMPK α1/β1/γ1 complex (Q9Y478 whole entry): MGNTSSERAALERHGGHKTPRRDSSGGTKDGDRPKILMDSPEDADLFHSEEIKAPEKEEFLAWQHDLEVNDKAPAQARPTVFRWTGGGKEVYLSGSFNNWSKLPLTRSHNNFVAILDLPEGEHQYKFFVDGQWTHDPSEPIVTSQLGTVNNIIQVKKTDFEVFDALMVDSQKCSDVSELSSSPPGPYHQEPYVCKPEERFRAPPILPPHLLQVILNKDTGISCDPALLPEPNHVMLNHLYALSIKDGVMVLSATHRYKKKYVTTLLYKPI
Chain of Recombinant AMPK α1/β1/γ1 complex (P54619 whole entry partner): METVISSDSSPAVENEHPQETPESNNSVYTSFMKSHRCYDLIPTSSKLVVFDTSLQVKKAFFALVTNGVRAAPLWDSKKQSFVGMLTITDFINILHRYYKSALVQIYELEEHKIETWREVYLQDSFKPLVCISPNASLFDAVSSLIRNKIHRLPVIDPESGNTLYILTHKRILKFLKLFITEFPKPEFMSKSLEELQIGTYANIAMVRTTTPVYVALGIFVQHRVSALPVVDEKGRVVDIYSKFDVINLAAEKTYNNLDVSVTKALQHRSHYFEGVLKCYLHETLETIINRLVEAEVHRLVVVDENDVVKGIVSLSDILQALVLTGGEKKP
Procedure: Compound effect on AMPK enzyme activation was determined in a cell-free format with a 12-point concentration curve. The ADP-Glo detection system was used to determine phosphorylation of a SAMS peptide substrate. Recombinant AMPK α1/β1/γ1 complex was pre-activated by phosphorylation with CAMKK2 followed by incubated with compound for 15 minutes prior to the SAMS phosphorylation reaction. Activity curves and EC50 values were fitted by interpolation to an ATP:ADP standard curve as indicated by the ADP-Glo manufacturer using Prism software.

[3] = Pharmacokinetics (oral bioavailability) in C57BL/6 mice; details: mouse, in vivo; for bioavailability: IV 1 mg/kg, PO 30 mg/kg; for Vd: following IV administration, 1 mg/kg, read-out: volume of distribution
Procedure: Selected compounds were tested for pharmacokinetics in C57BL/6 mice. Compounds 1, 4, 31, 32, 40, 55, 57 and 60 were dosed IV at 1 mg/kg as a formulation of 0.2 mg/mL in 5% DMSO+30% PEG400+65% water and were dosed PO at 30 mg/kg as a formulation of 3 mg/mL in 0.25% MC+5% Tween 80+0.02% SDS. Compound 2 was dosed IV at 1 mg/kg as a formulation of 0.2 mg/mL in 5% ethanol +95% saline and was dosed PO at 30 mg/kg as a formulation of 3 mg/mL in 0.25% MC+5% Tween 80+0.02% SDS.

[4] = Caco-2, pH 7.4, Mean Recovery A to B

Compound: OCCOCCNCc1ccc(-c2ccc(-c3cc4nc(O[C@@H]5CO[C@H]6[C@@H]5OC[C@H]6O)[nH]c4cc3Cl)cc2)cc1 [Compound 58, (3R,3aR,6R,6aR)-6-((6-chloro-5-(4′-(((2-(2-hydroxyethoxy)ethyl)amino)methyl)-[1,1′-biphenyl]-4-yl)-1H-benzo[d]imidazol-2-yl)oxy)hexahydrofuro[3,2-b]furan-3-ol]
Diarrhea Score Day 5, % Change vs. Vehicle [1]: −81% | Diarrhea Score Day 6, % Change vs. Vehicle [1]: −66% | Diarrhea Score Day 5 [1]: 0.25 | Diarrhea Score Day 6 [1]: 0.38 | EC50 [2]: 0.93 nM

Compound: CN1CCN(Cc2ccc(-c3ccc(-c4cc5nc(O[C@@H]6CO[C@H]7[C@@H]6OC[C@H]7O)[nH]c5cc4Cl)cc3)cc2)CC1 [Compound 57, (3R,3aR,6R,6aR)-6-((6-chloro-5-(4′-((4-methylpiperazin-1-yl)methyl)-[1,1′-biphenyl]-4-yl)-1H-benzo[d]imidazol-2-yl)oxy)hexahydrofuro[3,2-b]furan-3-ol]
bioavailability [3]: < 10% | Vd [3]: < 5 L/kg | EC50 [2]: 0.89 nM

Compound: OCC1CCN(Cc2ccc(-c3ccc(-c4cc5nc(O[C@@H]6CO[C@H]7[C@@H]6OC[C@H]7O)[nH]c5cc4Cl)cc3)cc2)CC1 [Compound 55, (3R,3aR,6R,6aR)-6-((6-chloro-5-(4′((4-(hydroxymethyl)piperidin-1-yl)methyl)-[1,1′-biphenyl]-4-yl)-1H-benzo[d]imidazol-2-yl)oxy)hexahydrofuro[3,2-b]furan-3-ol]
bioavailability [3]: < 15% | Vd [3]: < 5 L/kg | EC50 [2]: 2.22 nM

Compound: OCC1(CO)CN(Cc2ccc(-c3ccc(-c4nc5nc(O[C@@H]6CO[C@H]7[C@@H]6OC[C@H]7O)[nH]c5cc4Cl)cc3)cc2)C1 [Compound 52, (1-((4′-(6-chloro-2-(((3R,3aR,6R,6aR)-6-hydroxyhexahydrofuro[3,2-b]furan-3-yl)oxy)-1H-imidazo[4,5-b]pyridin-5-yl)-[1,1′-biphenyl]-4-yl)methyl)azetidine-3,3-diyl)dimethanol]
EC50 [2]: 0.81 nM

Compound: OCCN1CCN(Cc2ccc(-c3ccc(-c4cc5nc(O[C@@H]6CO[C@H]7[C@@H]6OC[C@H]7O)[nH]c5cc4Cl)cc3)cc2)CC1 [Compound 56]
Diarrhea Score Day 5, % Change vs. Vehicle [1]: −71% | Diarrhea Score Day 6, % Change vs. Vehicle [1]: −77% | Diarrhea Score Day 5 [1]: 0.38 | Diarrhea Score Day 6 [1]: 0.25 | EC50 [2]: 0.93 nM

Compound: CN(CCS(=O)(=O)O)C(=O)c1ccc(-c2ccc(-c3nc4nc(O[C@@H]5CO[C@H]6[C@@H]5OC[C@H]6O)[nH]c4cc3Cl)cc2)cc1 [Compound 8, 2-(4′-(6-chloro-2-(((3R,3aR,6R,6aR)-6-hydroxyhexahydrofuro[3,2-b]furan-3-yl)oxy)-1H-imidazo[4,5-b]pyridin-5-yl)-N-methyl-[1,1′-biphenyl]4-carboxamido)ethane-1-sulfonic acid]
EC50 [2]: 1.78 nM

Compound: OC[C@@H](O)[C@@H](O)[C@H](O)[C@@H](O)CNCc1ccc(-c2ccc(-c3cc4nc(O[C@@H]5CO[C@H]6[C@@H]5OC[C@H]6O)[nH]c4cc3Cl)cc2)cc1 [Compound 65, (2R,3R,4R,5S)-6-(((4′-(6-chloro-2-(((3R,3aR,6R,6aR)-6-hydroxyhexahydrofuro[3,2-b]furan-3-yl)oxy)-1H-benzo [d]imidazol-5-yl)-[1,1′-biphenyl]-4-yl)methyl)amino)hexane-1,2,3,4,5-pentaol]
EC50 [2]: 0.77 nM

Compound: O[C@@H]1CO[C@H]2[C@@H]1OC[C@H]2Oc1nc2cc(-c3ccc(-c4ccc(CN5C[C@@H](O)[C@@H](O)C5)cc4)cc3)c(Cl)cc2[nH]1 [Compound 61, (3S,4R)-1-((4′-(6-chloro-2-(((3R,3aR,6R,6aR)-6-hydroxyhexahydrofuro[3,2-b]furan-3-yl)oxy)-1H-benzo[d]imidazol-5-yl)-[1,1′-biphenyl]-4-yl)methyl)pyrrolidine-3,4-diol]
EC50 [2]: 1.36 nM

Compound: C[N+](C)(C)CCNC(=O)c1ccc(-c2ccc(-c3cc4nc(O[C@@H]5CO[C@H]6[C@@H]5OC[C@H]6O)[nH]c4cc3Cl)cc2)cc1 [Compound 29, 2-(4′-(6-chloro-2-(((3R,3aR,6R,6aR)-6-hydroxyhexahydrofuro[3,2-b]furan-3-yl)oxy)-1H-benzo [d]imidazol-5-yl)-[1,1′-biphenyl]-4-carboxamido)-N,N,N-trimethylethan-1-aminium bicarbonate]
EC50 [2]: 0.56 nM

Compound: O[C@@H]1CCN(Cc2ccc(-c3ccc(-c4cc5nc(O[C@@H]6CO[C@H]7[C@@H]6OC[C@H]7O)[nH]c5cc4Cl)cc3)cc2)C1 [Compound 59, (R)-1-((4′-(6-chloro-2-(((3R,3aR,6R,6aR)-6-hydroxyhexahydrofuro[3,2-b]furan-3-yl)oxy)-1H-benzo[d]imidazol-5-yl)-[1,1′-biphenyl]-4-yl)methyl)pyrrolidin-3-ol]
EC50 [2]: 1.04 nM

Compound: O=C(NCC(CS(=O)(=O)O)c1ccc(Cl)cc1)c1ccc(-c2ccc(-c3nc4nc(O[C@@H]5CO[C@H]6[C@@H]5OC[C@H]6O)[nH]c4cc3Cl)cc2)cc1 (stereo partly drawn) [Compound 7, 3-(4′-(6-chloro-2-(((3R,3aR,6R,6aR)-6-hydroxyhexahydrofuro[3,2-b]furan-3-yl)oxy)-1H-imidazo[4,5-b]pyridin-5-yl)-[1,1′-biphenyl]-4-carboxamido)-2-(4-chlorophenyl)propane-1-sulfonic acid]
EC50 [2]: 1.22 nM

Compound: OCC(CO)(CO)NCc1ccc(-c2ccc(-c3cc4nc(O[C@@H]5CO[C@H]6[C@@H]5OC[C@H]6O)[nH]c4cc3Cl)cc2)cc1 [Compound 36, 2-(((4′-(6-chloro-2-(((3R,3aR,6R,6aR)-6-hydroxyhexahydrofuro[3,2-b]furan-3-yl)oxy)-1H-benzo[d]imidazol-5-yl)-[1,1′-biphenyl]-4-yl)methyl)amino)-2-(hydroxymethyl)propane-1,3-diol]
EC50 [2]: 0.84 nM

Next, values leading:

Papp A→B at 2 h, 2 μM (in vitro; Caco-2, pH 7.4): < 0.03 ×10⁻⁶ cm/s | Papp B→A at 2 h, 2 μM (in vitro; Caco-2, pH 7.4): 12.7 ×10⁻⁶ cm/s | efflux ratio at 2 h, 2 μM (in vitro; Caco-2, pH 7.4, Efflux Ratio): > 438 | recovery at 2 h, 2 μM (in vitro; [4]): < 90.8% | recovery at 2 h, 2 μM (in vitro; Caco-2, pH 7.4, Mean Recovery B to A): 92.2%
Compound: C[C@H]1O[C@@H](O[C@H]2[C@@H](O)C[C@H](O[C@H]3[C@@H](O)C[C@H](O[C@H]4CC[C@@]5(C)[C@H](CC[C@@H]6[C@@H]5C[C@@H](O)[C@]5(C)[C@@H](C7=CC(=O)OC7)CC[C@]65O)C4)O[C@@H]3C)O[C@@H]2C)C[C@H](O)[C@@H]1O [Digoxin, reference compound]

Papp A→B at 2 h, 2 μM (in vitro; Caco-2, pH 7.4): 16.4 ×10⁻⁶ cm/s | recovery at 2 h, 2 μM (in vitro; [4]): 90%
Compound: COCCc1ccc(OCC(O)CNC(C)C)cc1 (centres unmarked) [Metoprolol, metoprolol, reference compound]

EC50 [2]: 0.63 nM
Compound: O=S(=O)(NC[C@H](O)[C@@H](O)[C@H](O)[C@H](O)CO)c1ccc(-c2ccc(-c3cc4nc(O[C@@H]5CO[C@H]6[C@@H]5OC[C@H]6O)[nH]c4cc3Cl)cc2)cc1 [Compound 71]

EC50 [2]: 1.38 nM
Compound: CN(CCOCCO)S(=O)(=O)c1ccc(-c2ccc(-c3cc4nc(O[C@@H]5CO[C@H]6[C@@H]5OC[C@H]6O)[nH]c4cc3Cl)cc2)cc1 [Compound 72]

EC50 [2]: 0.15 nM
Compound: OCCOCCNCc1ccc(-c2ccc(-c3cc4nc(O[C@@H]5CO[C@H]6[C@@H]5OC[C@H]6O)[nH]c4cc3Cl)cc2)c(O)c1 [Compound 74]

EC50 [2]: > 10000 nM
Compound: O=P(O)(O)c1ccc(-c2ccc(-c3nc4nc(O[C@@H]5CO[C@@H](CO)[C@@H]5O)[nH]c4cc3Cl)cc2)cc1 [Compound 68, (4′-(6-chloro-2-(((3R,4S,5S)-4-hydroxy-5-(hydroxymethyl)tetrahydrofuran-3-yl)oxy)-1H-imidazo[4,5-b]pyridin-5-yl)-[1,1′-biphenyl]-4-yl)phosphonic acid]
